These results are taken from PubChem BioAssay (NCI).

The structures appear in SMILES notation. Several values for one entry are separate records, joined by “and”; a condition that tells them apart may be missing. Equal values may be shown once.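 Following 48 hours of exposure in 96-well plates, responses at five concentrations were used to interpolate endpoints linearly. Here, GI50 denotes the concentration required for 50% inhibition of growth. At the TGI there is no net growth.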

Test systems include A549 NSCLC; HL-60(TB) leukemia; HOP-92 NSCLC; IGROV1 ovarian; NCI-H23 lung; SK-MEL-2 melanoma; UACC-257 melanoma; NCI-H460 lung; OVCAR-5 ovarian; SF-268 CNS.
Common to all, as to experiment: NCI anticancer screen, dose series, 48 h

`[N-]=[N+]=C1N=CN=C1c1ncn[nH]1`: the TGI with A549 NSCLC was over 100 µM; with HL-60(TB) leukemia, 40.5 µM; with HOP-92 NSCLC it was 45 µM; in the experiment on IGROV1 ovarian it was over 100 µM; in the experiment on NCI-H23 lung, over 100 µM; with SK-MEL-2 melanoma, over 100 µM. The molecule further came in with a TGI with UACC-257 melanoma of over 100 µM.
`C[Si](C)(OCCS(=O)(=O)O)C1(Cc2cccc3ccccc23)S(=O)(=O)OCCOS1(=O)=O`: the TGI in the experiment on A549 NSCLC amounted to 65.2 µM; in the experiment on HL-60(TB) leukemia it was 51.8 µM; in the experiment with HOP-92 NSCLC it was 50.7 µM; with IGROV1 ovarian it was 36.3 µM; in the experiment on NCI-H23 lung, 96 µM; in the experiment with NCI-H460 lung it was 41.1 µM. Besides, the TGI with OVCAR-5 ovarian was determined as 33.1 µM; in the experiment on SF-268 CNS, 79.5 µM; with SK-MEL-2 melanoma it was 46.3 µM; in the experiment on UACC-257 melanoma, 80.1 µM.
Turning to `CCOP(=O)(OCC)/C(C#N)=C/c1cn(C)cn1`, the TGI in the experiment on A549 NSCLC, in the experiment with HOP-92 NSCLC, in the experiment on IGROV1 ovarian, with NCI-H23 lung, with NCI-H460 lung and with OVCAR-5 ovarian was over 100 µM in each case. The TGI in the experiment with SF-268 CNS, with SK-MEL-2 melanoma and in the experiment on UACC-257 melanoma was over 100 µM in each case.
`N[C@H](C(=O)O)[C@H]1ON=C(Cl)[C@@H]1O`: the GI50 was 3.79 µM with A549 NSCLC; 13.1 µM in the experiment on HL-60(TB) leukemia; 52.2 µM with HOP-92 NSCLC; 7.86 µM with IGROV1 ovarian; 5.09 µM in the experiment on NCI-H23 lung; 3.92 µM in the experiment on NCI-H460 lung. Moreover, the GI50 was 13.8 µM with OVCAR-5 ovarian, 5.1 µM with SF-268 CNS, 9.75 µM in the experiment on SK-MEL-2 melanoma and over 51.1 µM in the experiment with UACC-257 melanoma. In addition, the TGI is over 550 µM in the experiment with A549 NSCLC; 222 µM in the experiment with HL-60(TB) leukemia; 269 µM in the experiment with HOP-92 NSCLC; over 309 µM in the experiment on IGROV1 ovarian; over 550 µM in the experiment with NCI-H23 lung; > 52.9 µM and 174 µM in the experiment with NCI-H460 lung. Further, the TGI in the experiment on OVCAR-5 ovarian was over 166 µM; with SF-268 CNS, over 550 µM; in the experiment on SK-MEL-2 melanoma, over 550 µM; in the experiment on UACC-257 melanoma it was over 550 µM.
Consider `C[C@]12CCC(=O)C=C1CC[C@@H]1[C@@H]2[C@@H](O)C[C@@]2(C)[C@H]1CC[C@]2(O)C(=O)COC(=O)COCC(=O)O`, for which the TGI in the experiment with A549 NSCLC, with HL-60(TB) leukemia, in the experiment on HOP-92 NSCLC, in the experiment with IGROV1 ovarian, in the experiment with NCI-H23 lung and with NCI-H460 lung was over 100 µM each time. Besides, the TGI in the experiment with OVCAR-5 ovarian, in the experiment with SF-268 CNS, with SK-MEL-2 melanoma and with UACC-257 melanoma was over 100 µM each time.
As for `O=S(=O)(CCBr)CCBr`, the TGI amounted to 27.8 µM with A549 NSCLC; 5.93 µM with HL-60(TB) leukemia; 20.9 µM in the experiment with HOP-92 NSCLC; 18.8 µM with IGROV1 ovarian; 18.7 µM in the experiment on NCI-H23 lung; 29.9 µM in the experiment with NCI-H460 lung. Further, the TGI in the experiment on OVCAR-5 ovarian came to 26.7 µM; in the experiment on SF-268 CNS, 16.1 µM; in the experiment on SK-MEL-2 melanoma it was 26 µM; in the experiment on UACC-257 melanoma, 13.5 µM.
On to `O=C(Nc1cccc(-n2ccc3c(NC(=O)c4ccccc4)nccc32)c1)Nc1cc(C(F)(F)F)cc(C(F)(F)F)c1`, for which the GI50 with A549 NSCLC is 1.97 µM; in the experiment with HL-60(TB) leukemia, 1.72 µM; with HOP-92 NSCLC, 0.853 µM; in the experiment on IGROV1 ovarian it was 2.46 µM; with NCI-H23 lung it was 1.96 µM; with NCI-H460 lung, 1.7 µM. Moreover, the GI50 in the experiment with OVCAR-5 ovarian was 1.71 µM; in the experiment with SF-268 CNS it was 2.71 µM; in the experiment on SK-MEL-2 melanoma, 1.32 µM; with UACC-257 melanoma, 2.45 µM. Also, the TGI in the experiment with A549 NSCLC is over 50 µM; in the experiment with HL-60(TB) leukemia it was 5.01 µM; in the experiment on HOP-92 NSCLC, 3.95 µM; in the experiment with IGROV1 ovarian, over 50 µM; in the experiment with NCI-H23 lung, over 50 µM; in the experiment with NCI-H460 lung, over 50 µM. The TGI in the experiment on OVCAR-5 ovarian was over 50 µM; in the experiment on SF-268 CNS, over 50 µM; in the experiment on SK-MEL-2 melanoma, 4.68 µM; with UACC-257 melanoma it was 15.2 µM.
`COc1ccc(-n2cnnc2-c2nsc3ccccc23)cc1`: the TGI in the experiment on A549 NSCLC, in the experiment on HL-60(TB) leukemia, with HOP-92 NSCLC, in the experiment on IGROV1 ovarian, in the experiment on NCI-H23 lung and in the experiment with NCI-H460 lung was over 100 µM throughout. In addition, the TGI with OVCAR-5 ovarian, in the experiment with SF-268 CNS, with SK-MEL-2 melanoma and in the experiment with UACC-257 melanoma was over 100 µM each time.
For `O=C(O)c1cc2ccccc2c(N=Nc2ccc(S(=O)(=O)Nc3nccs3)cc2)c1O`, the TGI in the experiment with A549 NSCLC, in the experiment with HL-60(TB) leukemia, with HOP-92 NSCLC, in the experiment with IGROV1 ovarian, in the experiment on NCI-H23 lung and with NCI-H460 lung was over 100 µM throughout. For the same molecule, the TGI in the experiment with OVCAR-5 ovarian, in the experiment with SF-268 CNS, with SK-MEL-2 melanoma and in the experiment on UACC-257 melanoma was over 100 µM in each case.
With `Nc1nc(SCc2ccc([N+](=O)[O-])cc2)nc2c1ncn2C1OC(COP(=O)(O)O)C(O)C1O` (centres undefined), the TGI in the experiment on A549 NSCLC, in the experiment with HL-60(TB) leukemia, in the experiment with HOP-92 NSCLC, with IGROV1 ovarian, in the experiment on NCI-H23 lung and with NCI-H460 lung was over 100 µM in each case. Besides, the TGI in the experiment on OVCAR-5 ovarian, with SF-268 CNS, with SK-MEL-2 melanoma and in the experiment with UACC-257 melanoma was over 100 µM in each case.
For the molecule `Cc1ccc(N=N/C(=N\NC(=O)c2ccc(C)cc2)c2ccc(N(CCC#N)CCC#N)cc2C)cc1`, the TGI is over 100 µM with A549 NSCLC; over 100 µM in the experiment with HL-60(TB) leukemia; over 100 µM in the experiment with HOP-92 NSCLC; 60.6 µM with IGROV1 ovarian; over 100 µM with NCI-H23 lung; over 100 µM with NCI-H460 lung. The TGI was over 100 µM in the experiment on OVCAR-5 ovarian, over 100 µM in the experiment with SF-268 CNS, 51.6 µM in the experiment on SK-MEL-2 melanoma and over 100 µM in the experiment with UACC-257 melanoma.
In the case of `CC(C)OP(=O)(OC(C)C)/C(I)=N/Nc1ccc([N+](=O)[O-])cc1`, the TGI with A549 NSCLC, in the experiment on HL-60(TB) leukemia, in the experiment on HOP-92 NSCLC, in the experiment on IGROV1 ovarian, with NCI-H23 lung and in the experiment with NCI-H460 lung was over 100 µM throughout. The TGI in the experiment on OVCAR-5 ovarian, in the experiment with SF-268 CNS, with SK-MEL-2 melanoma and in the experiment with UACC-257 melanoma was over 100 µM throughout.
Take `CC(NC(=O)C(C)NC(=O)C(N)CCP(C)(=O)O)C(=O)O` (centres undefined): the TGI in the experiment with A549 NSCLC, in the experiment with HL-60(TB) leukemia, in the experiment on HOP-92 NSCLC, with IGROV1 ovarian, with NCI-H23 lung and with NCI-H460 lung was over 100 µM in each case. The TGI in the experiment on OVCAR-5 ovarian, with SF-268 CNS, in the experiment with SK-MEL-2 melanoma and with UACC-257 melanoma was over 100 µM in each case.
With `CC1=Nc2nc(Cl)cn2C(=O)C1(Cl)Cl`, the TGI in the experiment with A549 NSCLC, in the experiment on HL-60(TB) leukemia, in the experiment on IGROV1 ovarian, in the experiment on NCI-H23 lung, with NCI-H460 lung and with OVCAR-5 ovarian was over 10 µM throughout. Also, the TGI in the experiment on SF-268 CNS and in the experiment on SK-MEL-2 melanoma was over 10 µM throughout.
